From US10485235B2, “Aryloxypyrimidinyl ethers as herbicides” (FMC Corporation, priority 2015, dated 2019)

Tests used:
Type in all cases: in vivo
[1] = tested on: barnyardgrass (Echinochloa crus-galli); assay: Test A postemergence, barnyardgrass; conditions: postemergence, 0 to 100 scale, 0 is no effect, 100 is complete control, approximately 10 days
Method in brief: (§1)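 Scores (0 no effect to 100 complete control) come from visual comparison of treated and untreated plants kept about 10 days in a greenhouse. Growth medium was a loam/sand blend; preemergence treatment was a directed soil spray, postemergence treatment went onto plants at the 1–2 leaf stage.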

[2] = tested on: ryegrass, Italian (Italian ryegrass, Lolium multiflorum); assay: Test A preemergence, Italian ryegrass; conditions: Preemergence, 0 to 100 scale (0 no effect, 100 complete control)
Method in brief: as §1

[3] = tested on: pigweed (Amaranthus retroflexus); assay: Test A postemergence, pigweed; conditions: postemergence, 0 to 100 scale, 0 is no effect, 100 is complete control, approximately 10 days
Method in brief: as §1

corn (Zea mays) = assay: Test A postemergence, corn; conditions: postemergence, 0 to 100 scale, 0 is no effect, 100 is complete control, approximately 10 days
Method in brief: as §1

[4] = tested on: ryegrass, Italian (Italian ryegrass, Lolium multiflorum); assay: Test A postemergence, Italian ryegrass; conditions: postemergence, 0 to 100 scale, 0 is no effect, 100 is complete control, approximately 10 days
Method in brief: as §1

kochia (Kochia scoparia) [5] = assay: Test A postemergence, kochia; conditions: postemergence, 0 to 100 scale, 0 is no effect, 100 is complete control, approximately 10 days
Method in brief: as §1

[6] = tested on: pigweed (Amaranthus retroflexus); assay: Test A preemergence, pigweed; conditions: Preemergence, 0 to 100 scale (0 no effect, 100 complete control)
Method in brief: as §1

[7] = tested on: ragweed (common ragweed, Ambrosia elatior); assay: Test A preemergence, ragweed; conditions: Preemergence, 0 to 100 scale (0 no effect, 100 complete control)
Method in brief: as §1

[8] = tested on: barnyardgrass (Echinochloa crus-galli); assay: Test A preemergence, barnyardgrass; conditions: Preemergence, 0 to 100 scale (0 no effect, 100 complete control)
Method in brief: as §1

[9] = tested on: ducksalad (Heteranthera limosa); assay: Test B flooded paddy test, ducksalad; conditions: 250 g ai/ha, Flood; visual rating after 13 to 15 days; scale 0 to 100, 0 is no effect, 100 is complete control
Method in brief: (§2)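 2-leaf plants; flood to 3 cm, dose into water, hold depth; greenhouse 13–15 d; visual score 0–100 vs controls; dash = not tested.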

[10] = tested on: wheat (Triticum aestivum); assay: Test A postemergence, wheat; conditions: postemergence, 0 to 100 scale, 0 is no effect, 100 is complete control, approximately 10 days
Method in brief: as §1

[11] = tested on: barnyardgrass (Echinochloa crus-galli); assay: Test B flooded paddy test, barnyardgrass; conditions: 250 g ai/ha, Flood; visual rating after 13 to 15 days; scale 0 to 100, 0 is no effect, 100 is complete control
Method in brief: as §2

[12] = tested on: ragweed (common ragweed, Ambrosia elatior); assay: Test A postemergence, ragweed; conditions: postemergence, 0 to 100 scale, 0 is no effect, 100 is complete control, approximately 10 days
Method in brief: as §1

[13] = tested on: blackgrass (Alopecurus myosuroides); assay: Test A postemergence, blackgrass; conditions: postemergence, 0 to 100 scale, 0 is no effect, 100 is complete control, approximately 10 days
Method in brief: as §1

rice (Oryza sativa) = assay: Test B flooded paddy test, rice; conditions: 250 g ai/ha, Flood; visual rating after 13 to 15 days; scale 0 to 100, 0 is no effect, 100 is complete control
Method in brief: as §2

kochia (Kochia scoparia) [14] = assay: Test A preemergence, kochia; conditions: Preemergence, 0 to 100 scale (0 no effect, 100 complete control)
Method in brief: as §1

[15] = tested on: sedge, umbrella (small-flower umbrella sedge, Cyperus difformis); assay: Test B flooded paddy test, umbrella sedge; conditions: 250 g ai/ha, Flood; visual rating after 13 to 15 days; scale 0 to 100, 0 is no effect, 100 is complete control
Method in brief: as §2

[16] = tested on: foxtail, giant (giant foxtail, Setaria faberii); assay: Test A postemergence, giant foxtail; conditions: postemergence, 0 to 100 scale, 0 is no effect, 100 is complete control, approximately 10 days
Method in brief: as §1

[17] = tested on: foxtail, giant (giant foxtail, Setaria faberii); assay: Test A preemergence, giant foxtail; conditions: Preemergence, 0 to 100 scale (0 no effect, 100 complete control)
Method in brief: as §1

[18] = tested on: galium (catchweed bedstraw, Galium aparine); assay: Test A postemergence, galium; conditions: postemergence, 0 to 100 scale, 0 is no effect, 100 is complete control, approximately 10 days
Method in brief: as §1

SMILES	Plant response rating, Barnyardgrass ([1]; 31 g ai/ha)	Plant response rating, Barnyardgrass ([1]; 125 g ai/ha)	Plant response rating, Ryegrass, Italian ([2]; 31 g ai/ha)	Plant response rating, Ryegrass, Italian ([2]; 125 g ai/ha)	Plant response rating, Pigweed ([3]; 31 g ai/ha)	Plant response rating, Pigweed ([3]; 125 g ai/ha)	Plant response rating, Corn (corn (Zea mays); 31 g ai/ha)	Plant response rating, Corn (corn (Zea mays); 125 g ai/ha)	Plant response rating, Ryegrass, Italian ([4]; 31 g ai/ha)	Plant response rating, Ryegrass, Italian ([4]; 125 g ai/ha)	Plant response rating, Kochia (kochia (Kochia scoparia) [5]; 31 g ai/ha)	Plant response rating, Kochia (kochia (Kochia scoparia) [5]; 125 g ai/ha)	Plant response rating, Pigweed ([6]; 31 g ai/ha)	Plant response rating, Pigweed ([6]; 125 g ai/ha)	Plant response rating, Ragweed ([7]; 31 g ai/ha)	Plant response rating, Ragweed ([7]; 125 g ai/ha)	Plant response rating, Barnyardgrass ([8]; 31 g ai/ha)	Plant response rating, Barnyardgrass ([8]; 125 g ai/ha)	Plant response rating, Ducksalad [9]	Plant response rating, Wheat ([10]; 31 g ai/ha)	also measured
N#CCCCOc1c(Cl)cccc1Oc1ncc(Cl)cn1 [Compound 45]	0	10	0	0	20	50	0	10	0	0	20	50	20	70	0	0	0	10	20	0	Plant response rating, Wheat ([10]; 125 g ai/ha): 0; Plant response rating, Barnyardgrass [11]: 0; Plant response rating, Ragweed ([12]; 31 g ai/ha): 10; Plant response rating, Ragweed ([12]; 125 g ai/ha): 10; Plant response rating, Blackgrass ([13]; 31 g ai/ha): 0; Plant response rating, Blackgrass ([13]; 125 g ai/ha): 0; Plant response rating, Rice (rice (Oryza sativa)): 0; Plant response rating, Kochia (kochia (Kochia scoparia) [14]; 31 g ai/ha): 0; Plant response rating, Kochia (kochia (Kochia scoparia) [14]; 125 g ai/ha): 30; Plant response rating, Sedge, Umbrella [15]: 0; Plant response rating, Foxtail, Giant ([16]; 31 g ai/ha): 0; Plant response rating, Foxtail, Giant ([16]; 125 g ai/ha): 10; Plant response rating, Foxtail, Giant ([17]; 31 g ai/ha): 0; Plant response rating, Foxtail, Giant ([17]; 125 g ai/ha): 30; Plant response rating, Galium ([18]; 31 g ai/ha): 10; Plant response rating, Galium ([18]; 125 g ai/ha): 20
FC(F)(F)CCCOc1c(Cl)cccc1Oc1ncc(Cl)cn1 [Compound 46]	0	30	0	10	50	90	10	20	0	10	50	80	0	100	0	0	10	80	98	0	Plant response rating, Wheat ([10]; 125 g ai/ha): 0; Plant response rating, Barnyardgrass [11]: 0; Plant response rating, Ragweed ([12]; 31 g ai/ha): 0; Plant response rating, Ragweed ([12]; 125 g ai/ha): 10; Plant response rating, Blackgrass ([13]; 31 g ai/ha): 0; Plant response rating, Blackgrass ([13]; 125 g ai/ha): 40; Plant response rating, Rice (rice (Oryza sativa)): 0; Plant response rating, Kochia (kochia (Kochia scoparia) [14]; 31 g ai/ha): 0; Plant response rating, Kochia (kochia (Kochia scoparia) [14]; 125 g ai/ha): 80; Plant response rating, Sedge, Umbrella [15]: 100; Plant response rating, Foxtail, Giant ([16]; 31 g ai/ha): 20; Plant response rating, Foxtail, Giant ([16]; 125 g ai/ha): 60; Plant response rating, Foxtail, Giant ([17]; 31 g ai/ha): 40; Plant response rating, Foxtail, Giant ([17]; 125 g ai/ha): 100; Plant response rating, Galium ([18]; 31 g ai/ha): 30; Plant response rating, Galium ([18]; 125 g ai/ha): 70
FC(F)(F)/C=C/COc1c(Cl)cccc1Oc1ncc(Cl)cn1 [Compound 47]	10	40	0	10	20	90	10	20	0	10	50	90	0	60	0	0	10	50	85	0	Plant response rating, Wheat ([10]; 125 g ai/ha): 0; Plant response rating, Barnyardgrass [11]: 0; Plant response rating, Ragweed ([12]; 31 g ai/ha): 0; Plant response rating, Ragweed ([12]; 125 g ai/ha): 10; Plant response rating, Blackgrass ([13]; 31 g ai/ha): 10; Plant response rating, Blackgrass ([13]; 125 g ai/ha): 50; Plant response rating, Rice (rice (Oryza sativa)): 0; Plant response rating, Kochia (kochia (Kochia scoparia) [14]; 31 g ai/ha): 0; Plant response rating, Kochia (kochia (Kochia scoparia) [14]; 125 g ai/ha): 80; Plant response rating, Sedge, Umbrella [15]: 100; Plant response rating, Foxtail, Giant ([16]; 31 g ai/ha): 20; Plant response rating, Foxtail, Giant ([16]; 125 g ai/ha): 70; Plant response rating, Foxtail, Giant ([17]; 31 g ai/ha): 30; Plant response rating, Foxtail, Giant ([17]; 125 g ai/ha): 100; Plant response rating, Galium ([18]; 31 g ai/ha): 50; Plant response rating, Galium ([18]; 125 g ai/ha): 80
